This note sets out measurements from ChEMBL document CHEMBL1150213, “Protein-tyrosine kinase inhibition: mechanism-based discovery of antitumor agents” (J Nat Prod, 1992).

Broadly, the IC50 is the point on the concentration scale where inhibition reaches its midpoint. One may read the Ki as a measure of affinity in units of concentration, obtained from inhibition or displacement. Read a high Ki as weaker binding.

Where only a bound is given, the exact number is not on record here.

T1 sequence (P00533 whole entry): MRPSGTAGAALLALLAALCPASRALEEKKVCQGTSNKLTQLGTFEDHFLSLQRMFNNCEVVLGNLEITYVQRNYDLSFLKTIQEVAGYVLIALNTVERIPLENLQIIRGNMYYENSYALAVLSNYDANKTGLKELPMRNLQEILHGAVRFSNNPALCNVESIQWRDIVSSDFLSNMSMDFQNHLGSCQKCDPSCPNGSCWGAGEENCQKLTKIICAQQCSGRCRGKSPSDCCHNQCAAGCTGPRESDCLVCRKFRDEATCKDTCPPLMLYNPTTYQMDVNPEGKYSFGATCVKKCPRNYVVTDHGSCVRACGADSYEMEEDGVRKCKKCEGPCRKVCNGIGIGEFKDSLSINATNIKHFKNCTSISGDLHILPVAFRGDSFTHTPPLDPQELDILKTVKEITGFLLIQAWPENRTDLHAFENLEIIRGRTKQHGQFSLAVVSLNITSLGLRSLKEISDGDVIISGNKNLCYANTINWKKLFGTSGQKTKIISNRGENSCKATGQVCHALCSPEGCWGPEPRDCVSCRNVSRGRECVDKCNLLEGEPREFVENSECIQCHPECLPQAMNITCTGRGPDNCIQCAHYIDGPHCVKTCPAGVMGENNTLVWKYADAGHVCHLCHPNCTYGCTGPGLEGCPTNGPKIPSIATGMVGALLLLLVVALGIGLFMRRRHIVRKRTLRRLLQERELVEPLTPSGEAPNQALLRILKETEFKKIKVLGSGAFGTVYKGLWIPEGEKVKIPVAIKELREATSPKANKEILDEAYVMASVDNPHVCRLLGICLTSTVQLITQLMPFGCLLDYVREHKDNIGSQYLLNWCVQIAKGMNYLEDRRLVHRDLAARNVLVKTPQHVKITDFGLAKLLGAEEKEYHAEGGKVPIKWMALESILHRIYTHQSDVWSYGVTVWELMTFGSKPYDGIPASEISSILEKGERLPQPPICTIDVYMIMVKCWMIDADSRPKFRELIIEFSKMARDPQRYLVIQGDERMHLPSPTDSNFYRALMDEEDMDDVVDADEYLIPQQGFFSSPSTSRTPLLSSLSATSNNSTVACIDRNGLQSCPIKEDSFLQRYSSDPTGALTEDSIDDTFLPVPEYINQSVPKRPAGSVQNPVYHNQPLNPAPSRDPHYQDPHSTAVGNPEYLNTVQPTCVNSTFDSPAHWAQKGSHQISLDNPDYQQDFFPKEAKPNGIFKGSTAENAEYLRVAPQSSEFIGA

The first test concerns the target T1, Epidermal growth factor receptor (Homo sapiens, UniProt P00533).
Description: Inhibition of EGFR in human A431 cells
`CCCCNC(=O)c1ccc(S(=O)(=O)Oc2ccc(/C=C/[N+](=O)[O-])cc2)cc1` gave an IC50 of 5 µM.

Molecule `COc1cc(/C=C/[N+](=O)[O-])ccc1OS(=O)(=O)c1ccc(C(=O)O)cc1` yielded an IC50 of 3 µM.

The target of a further test is T1, Epidermal growth factor receptor. This is another data set of the same source.
Molecule `CCOC(=O)c1oc2cc(O)cc(O)c2c(=O)c1-c1ccc(O)cc1` gave an IC50 of 5.84 µM.

For the molecule `CC(C)c1cc(/C=C(\C#N)C(N)=O)cc(C(C)C)c1O`, the IC50 was found to be 1 µM.

As to `CCOc1cc(/C=C2/CCNC2=O)cc(CSc2ccccc2)c1O`, inhibition was half-maximal at 0.9 µM (IC50).

As for `CSCc1oc2cc(O)cc(O)c2c(=O)c1-c1ccc(O)cc1`, half-maximal inhibition (IC50) was put at 15.1 µM. Against the preceding molecule, the IC50 is about 17-fold higher.

As for `O=CN/C=C/c1cccc(O)c1O`, the midpoint of inhibition, the IC50, lay at 1.67 µM.

`O=c1c(-c2ccc(O)cc2)c(CSC2=NCCS2)oc2cc(O)cc(O)c12` showed a concentration for half-maximal inhibition (IC50) of 12.5 µM.

`N#CC(C#N)=C1C(=O)Nc2cc(O)c(O)cc21`: inhibition was half-maximal at 3 µM (IC50).

`COc1cc(/C=C(\C#N)C(N)=O)cc(CSc2ccccc2)c1O`: the midpoint of inhibition, the IC50, lay at 0.5 µM.

Turning to `O=C(O)c1oc2cc(O)cc(O)c2c(=O)c1-c1ccc(O)cc1`, the midpoint of inhibition, the IC50, lay at 6.36 µM.

Take `CC(C)OC(=O)c1oc2cc(O)cc(O)c2c(=O)c1-c1ccc(O)cc1`: half-maximal inhibition (IC50) was put at 28.1 µM.

The molecule `CC(C)C[C@H](NC(=O)[C@H](CCCNC(=N)N)NC(=O)[C@@H](N)CCCNC(=N)N)C(=O)N[C@@H](CCC(=O)O)C(=O)N[C@@H](CCC(=O)O)C(=O)N[C@@H](CCC(=O)O)C(=O)N[C@@H](CCC(=O)O)C(=O)N[C@@H](CCC(=O)O)C(=O)N[C@@H](C)C(=O)N[C@@H](Cc1c(F)c(F)c(O)c(F)c1F)C(=O)NCC(=O)O` (stereo in doubt; 187L) came in with a Ki of 4 µM.

For the molecule `N#C/C(=C\c1cc(-c2ccccc2)c(O)c(-c2ccccc2)c1)C(N)=O`, the IC50 came out at 0.4 µM.

Consider `COC(=O)c1oc2cc(O)cc(O)c2c(=O)c1-c1ccc(O)cc1`, for which the IC50 was 6.09 µM.

On to `O=C(O)/C=C/c1cc(O)ccc1O`, for which inhibition was half-maximal at 44.4 µM (IC50).

For `CCOc1cc(/C=C(\C#N)C(N)=O)cc(CSc2ccc(C)cc2)c1O`, the midpoint of inhibition, the IC50, lay at 20 µM.

Molecule `CC(C)(C)c1cc(/C=C(\C#N)C(N)=O)cc(C(C)(C)C)c1O` came in with an IC50 of 50 µM.

`CSCc1cc(/C=C2\C(=O)Nc3ccccc32)cc(CSC)c1O` showed an IC50 of 0.4 µM.

With `O=CN/C=C/c1cccc(O)c1`, the half-inhibitory concentration (IC50) was over 61.3 µM.

`CCOC(=O)C(=O)Oc1ccc(-c2c(C(=O)OCC)oc3cc(O)cc(O)c3c2=O)cc1` showed a half-maximal inhibitory concentration (IC50) of 1 µM.

`O=CN/C=C/c1ccc(O)cc1O`: the IC50 is over 167 µM.

For the molecule `CC(C)c1cc(/C=C2\C(=O)Nc3ccccc32)cc(C(C)C)c1O`, the midpoint of inhibition, the IC50, lay at 0.4 µM.

Regarding `COC(=O)/C=C/c1cc(O)ccc1O`, it took 103 µM to reach half-maximal inhibition (IC50).

`CCOC(=O)CSCc1oc2cc(O)cc(O)c2c(=O)c1-c1ccc(O)cc1` had an IC50 of 9.94 µM.

`O=CN/C=C/c1ccc(O)c(O)c1` gave an IC50 of 5.58 µM.

Molecule `Cc1oc2cc(O)cc(O)c2c(=O)c1-c1ccc(O)cc1` gave an IC50 of 7.04 µM.

`O=CN/C=C/c1ccccc1O` showed an IC50 of over 613 µM.

As for `CCOc1cc(/C=C(\C#N)C(N)=O)cc(CSc2ccccc2)c1O`, 0.4 µM corresponded to half-maximal inhibition (IC50).

Regarding `O=CN/C=C/c1ccc(O)c(O)c1O`, the IC50 is 4.61 µM.

The molecule `CC(=O)N/C=C/c1cc(O)ccc1O` showed an IC50 of 15.5 µM.

Turning to `N#C/C(=C\c1cc(CSc2ccccc2)c(O)c(OCc2ccccc2)c1)C(N)=O`, it took 0.8 µM to reach half-maximal inhibition (IC50). This IC50 lies about 19-fold lower than the previous one.

Molecule `O=c1c(-c2ccc(O)cc2)c(CNC2=NCCS2)oc2cc(O)cc(O)c12` showed an IC50 of 52 µM.

Regarding `O=c1c(-c2ccc(O)cc2)c(CN2CCCCC2)oc2cc(O)cc(O)c12`, the midpoint of inhibition, the IC50, lay at 27.2 µM.

For the molecule `N#CC(C#N)=C1C(=O)Nc2ccc(O)cc21`, inhibition was half-maximal at 10 µM (IC50).

The target of a further test is T2, Tyrosine-protein kinase transforming protein Abl (Abelson murine leukemia virus, UniProt P00521).
T2 sequence (P00521 whole entry): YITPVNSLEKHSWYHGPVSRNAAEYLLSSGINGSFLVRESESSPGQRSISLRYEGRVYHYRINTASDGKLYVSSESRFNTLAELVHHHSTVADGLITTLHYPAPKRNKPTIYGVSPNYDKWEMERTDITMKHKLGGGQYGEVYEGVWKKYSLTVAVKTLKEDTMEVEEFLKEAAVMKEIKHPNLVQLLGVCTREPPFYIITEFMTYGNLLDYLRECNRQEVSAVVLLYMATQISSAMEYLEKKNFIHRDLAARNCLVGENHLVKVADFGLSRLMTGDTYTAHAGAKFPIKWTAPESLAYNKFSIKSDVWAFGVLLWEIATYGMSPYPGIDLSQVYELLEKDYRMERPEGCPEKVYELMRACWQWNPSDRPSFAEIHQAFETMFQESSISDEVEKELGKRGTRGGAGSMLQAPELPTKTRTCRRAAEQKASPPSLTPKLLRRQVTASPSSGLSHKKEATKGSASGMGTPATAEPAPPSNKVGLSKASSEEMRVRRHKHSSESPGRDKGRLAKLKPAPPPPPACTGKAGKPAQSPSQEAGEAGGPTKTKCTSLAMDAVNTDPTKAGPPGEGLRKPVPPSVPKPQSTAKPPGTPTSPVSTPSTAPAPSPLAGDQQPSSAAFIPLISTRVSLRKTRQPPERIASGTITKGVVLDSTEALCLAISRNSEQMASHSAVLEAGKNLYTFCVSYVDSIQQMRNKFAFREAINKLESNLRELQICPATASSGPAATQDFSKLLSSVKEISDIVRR
Description: Inhibition of Abelson murine leukemia virus p60 v-abl
Molecule `CC(=O)NC(Cc1ccc(OS(=O)(=O)c2ccc(C(=O)OC[C@H]3O[C@@H](n4cnc5c(N)ncnc54)[C@H](O)[C@@H]3O)cc2)cc1)C(N)=O` (some centres undefined) returned an IC50 of 100 µM.

In the case of `Nc1ncnc2c1ncn2[C@@H]1O[C@H](COC(=O)c2ccc(S(N)(=O)=O)cc2)[C@@H](O)[C@H]1O`, the IC50 turned out to be 100 µM.

In the case of `CCCCNC(=O)c1ccc(S(=O)(=O)Oc2ccc(/C=C/[N+](=O)[O-])cc2)cc1`, the IC50 is over 100 µM.

For `COc1cc(/C=C/[N+](=O)[O-])ccc1OS(=O)(=O)c1ccc(C(=O)O)cc1`, it took 40 µM to reach half-maximal inhibition (IC50).

Regarding `COc1ccc(NP(=O)(O)OP(=O)(O)OP(=O)(O)OC[C@H]2O[C@@H](n3cnc4c(N)ncnc43)[C@H](O)[C@@H]2O)cc1`, the IC50 was determined as 90 µM.

For the molecule `CC(=O)NCCNP(=O)(O)OP(=O)(O)OP(=O)(O)OC[C@H]1O[C@@H](n2cnc3c(N)ncnc32)[C@H](O)[C@@H]1O`, the midpoint of inhibition, the IC50, lay at 30 µM.

`Nc1ncnc2c1ncn2[C@@H]1O[C@H](COC(=O)c2ccc(S(=O)(=O)NCCCc3ccccc3)cc2)[C@@H](O)[C@H]1O`: the IC50 amounted to 60 µM.

The molecule `C[C@H](NC(=O)c1ccc(S(=O)(=O)Oc2ccc(/C=C/[N+](=O)[O-])cc2)cc1)C(=O)N[C@@H](C)C(=O)OC(C)(C)C` returned an IC50 of 100 µM. Compared with the last molecule, the IC50 is about 1.7-fold higher.

`CNC(=O)c1ccc(S(=O)(=O)Oc2ccc(/C=C/[N+](=O)[O-])cc2)cc1` displayed a 50% inhibitory concentration (IC50) of over 40 µM.

`Nc1ncnc2c1ncn2[C@@H]1O[C@H](COP(=O)(O)OP(=O)(O)OP(=O)(O)OP(=O)(O)Oc2ccccc2)[C@@H](O)[C@H]1O`: half-maximal inhibition (IC50) was put at 400 µM.

The molecule `COc1cc(/C=C/[N+](=O)[O-])ccc1OS(=O)(=O)c1ccc(C(=O)OC[C@H]2O[C@@H](n3cnc4c(N)ncnc43)[C@H](O)[C@@H]2O)cc1` came in with an IC50 of 100 µM. Against the preceding molecule, the IC50 is about 4-fold lower.

Take `Nc1ncnc2c1ncn2[C@@H]1O[C@H](COP(=O)(O)OP(=O)(O)OP(=O)(O)Oc2ccccc2)[C@@H](O)[C@H]1O`: the IC50 is 10 µM.

`Nc1ncnc2c1ncn2[C@@H]1O[C@H](COC(=O)c2ccc(S(=O)(=O)NCc3ccccc3)cc2)[C@@H](O)[C@H]1O` yielded an IC50 of 50 µM.

As to `CC(=O)NC(Cc1ccc(NP(=O)(O)OP(=O)(O)OP(=O)(O)OC[C@H]2O[C@@H](n3cnc4c(N)ncnc43)[C@H](O)[C@@H]2O)cc1)C(N)=O` (some centres undefined), it took 40 µM to reach half-maximal inhibition (IC50).

Consider `Nc1ncnc2c1ncn2[C@@H]1O[C@H](COC(=O)c2ccc(S(=O)(=O)Oc3ccccc3)cc2)[C@@H](O)[C@H]1O`, for which the IC50 amounted to 200 µM.

Molecule `Nc1ncnc2c1ncn2[C@@H]1O[C@H](COC(=O)c2ccc(S(=O)(=O)Oc3ccc(/C=C/[N+](=O)[O-])cc3)cc2)[C@@H](O)[C@H]1O` yielded an IC50 of over 100 µM.

In turn, `C[C@H](NC(=O)[C@H](C)NC(=O)c1ccc(S(=O)(=O)Oc2ccc(/C=C/[N+](=O)[O-])cc2)cc1)C(=O)O` had a half-inhibitory concentration (IC50) of 40 µM.

`Cc1ccc(NP(=O)(O)OP(=O)(O)OP(=O)(O)OP(=O)(O)OC[C@H]2O[C@@H](n3cnc4c(N)ncnc43)[C@H](O)[C@@H]2O)cc1` showed an IC50 of 20 µM.

As to `Nc1ncnc2c1ncn2[C@@H]1O[C@H](COC(=O)c2ccc(S(=O)(=O)F)cc2)[C@@H](O)[C@H]1O`, the IC50 amounted to 200 µM.

Molecule `CS(=O)(=O)c1ccc(C(=O)OC[C@H]2O[C@@H](n3cnc4c(N)ncnc43)[C@H](O)[C@@H]2O)cc1` showed an IC50 of 60 µM.

In turn, `O=C(O)c1ccc(S(=O)(=O)Oc2ccc(/C=C/[N+](=O)[O-])cc2)cc1` gave an IC50 of 100 µM.

`Nc1ncnc2c1ncn2[C@@H]1O[C@H](COC(=O)c2ccc(S(=O)(=O)Nc3ccccc3)cc2)[C@@H](O)[C@H]1O` came in with a half-maximal inhibitory concentration (IC50) of 20 µM.

With `CC(=O)NC(Cc1ccc(NP(=O)(O)OP(=O)(O)OP(=O)(O)OP(=O)(O)OC[C@H]2O[C@@H](n3cnc4c(N)ncnc43)[C@H](O)[C@@H]2O)cc1)C(N)=O` (some centres undefined), the IC50 came to 100 µM.

In the case of `Cc1ccc(NP(=O)(O)OP(=O)(O)OP(=O)(O)OC[C@H]2O[C@@H](n3cnc4c(N)ncnc43)[C@H](O)[C@@H]2O)cc1`, the IC50 came to 200 µM. This IC50 lies about 2-fold higher than the previous one.
